Test results published in US10905121B2, “Method for controlling PPO resistant weeds” (BASF SE, priority 2016, dated 2021).

How the values were obtained:
[1] = tested on: sensitive (w.1) and resistant weeds (w.2 to w.5); experiment: greenhouse herbicidal activity test, summary over all biotypes; assay type: in vivo, Amaranthus tamariscinus; settings: w.1 to w.5, including those shown to contain the ΔG210 mutation
Source text: (§1) The culture containers used were plastic flowerpots containing loamy sand with approximately 3.0% of humus as the substrate. The seeds of the test plants were sown separately for each species and/or resistant biotype. For the pre-emergence treatment, the active ingredients, which had been suspended or emulsified in water, were applied directly after sowing by means of finely distributing nozzles. The containers were irrigated gently to promote germination and growth and subsequently covered with transparent plastic hoods until the plants had rooted. This cover caused uniform germination of the test plants, unless this had been impaired by the active ingredients. For the post-emergence treatment, the test plants were first grown to a height of 3 to 15 cm, depending on the plant habit, and only then treated with the active ingredients which had been suspended or emulsified in water. For this purpose, the test plants were either sown directly and grown in the same containers, or they were first grown separately as seedlings and transplanted into the test containers a few days prior to treatment. Depending on the species, the plants were kept at 10-25° C. or 20-35° C., respectively. The test period extended over 2 to 4 weeks. During this time, the plants were tended, and their response to the individual treatments was evaluated. The evaluation was carried out by using a scale from 0 to 100. […]

[2] = tested on: Amaranthus tamariscinus (AMATA, common waterhemp), PPO resistant biotype 4 confirmed to contain the ΔG210 mutation (w.5); experiment: greenhouse herbicidal activity test, weed w.5; assay type: in vivo; settings: PPO resistant biotype 4 (ΔG210), scale 0 to 100
Source text: as §1

[3] = tested on: Amaranthus tamariscinus (AMATA, common waterhemp), PPO resistant biotype 2 (w.3); experiment: greenhouse herbicidal activity test, weed w.3; assay type: in vivo; settings: scale 0 to 100
Source text: as §1

[4] = tested on: Amaranthus tamariscinus (AMATA, common waterhemp), PPO resistant biotype 3 confirmed to contain the ΔG210 mutation (w.4); experiment: greenhouse herbicidal activity test, weed w.4; assay type: in vivo; settings: PPO resistant biotype 3 (ΔG210), scale 0 to 100
Source text: as §1

[5] = tested on: Amaranthus tamariscinus (AMATA, common waterhemp), Sensitive biotype (w.1); experiment: greenhouse herbicidal activity test, weed w.1; assay type: in vivo; settings: scale 0 (no damage) to 100 (complete destruction)
Source text: as §1

[6] = tested on: Amaranthus tamariscinus (AMATA, common waterhemp), PPO resistant biotype 1 (w.2); experiment: greenhouse herbicidal activity test, weed w.2; assay type: in vivo; settings: scale 0 to 100
Source text: as §1

## C=CCOC(=O)C(C)(C)OC(=O)c1cc(-n2c(=O)cc(C(F)(F)F)n(C)c2=O)ccc1Cl [(I).1, butafenacil]
[1]
  activity on sensitive and resistant weeds (in words): very good activity
[2]; use rate 4 g/ha
  Weed control (%) w.5: 80%
[2]; use rate 8 g/ha
  Weed control (%) w.5: 83%
[3]; use rate 4 g/ha
  Weed control (%) w.3: 100%
[3]; use rate 8 g/ha
  Weed control (%) w.3: 100%
[4]; use rate 4 g/ha
  Weed control (%) w.4: 80%
[4]; use rate 8 g/ha
  Weed control (%) w.4: 85%
[5]; use rate 4 g/ha
  Weed control (%) w.1: 100%
[5]; use rate 8 g/ha
  Weed control (%) w.1: 100%
[6]; use rate 4 g/ha
  Weed control (%) w.2: 100%
[6]; use rate 8 g/ha
  Weed control (%) w.2: 100%
